Results: ChEMBL document CHEMBL5512598, “Current advances and development strategies of orally bioavailable PROTACs” (Eur J Med Chem, 2023)

Legend:
[1] = target: von Hippel-Lindau disease tumor suppressor/Polycomb protein EED (Homo sapiens, UniProt O75530+P40337); assay: PROTAC activity at VHL/EED in human DB cells assessed as degradation of EED protein expression incubated for 24 hrs by Western blotting analysis; assay type: cell-based
[2] = target: von Hippel-Lindau disease tumor suppressor/Histone-lysine N-methyltransferase EZH2 (Homo sapiens, UniProt Q15910+P40337); assay: PROTAC activity against VHL/wild type EZH2 in human DB cells assessed as degradation of EZH2 protein expression incubated for 24 hrs by Western blot analysis; assay type: cell-based
[3] = target: von Hippel-Lindau disease tumor suppressor/Histone-lysine N-methyltransferase EZH2 (Homo sapiens, UniProt Q15910+P40337, Y641N); assay: PROTAC activity against VHL/EZH2 Y641N mutant in human DB cells assessed as degradation of EZH2 protein expression incubated for 24 hrs by Western blot analysis; assay type: cell-based
[4] = Cmax in CD-1 mouse plasma at 10 mg/kg, po by LC-MS/MS analysis; assay type: ADME, organism-based
[5] = Half life in CD-1 mouse at 10 mg/kg, po measured for 24 hrs by LC-MS/MS analysis; assay type: ADME, organism-based; conditions: in vivo
[6] = AUC (0 to t) in CD-1 mouse at 10 mg/kg, po measured for 24 hrs by LC-MS/MS analysis; assay type: ADME, organism-based; conditions: in vivo
[7] = target: Protein cereblon/Leucine-rich repeat serine/threonine-protein kinase 2 (Homo sapiens, UniProt Q5S007+Q96SW2); assay: PROTAC activity at CRBN/LRRK2 in human MOLT-4 cells assessed as induction of LRRK2 degradation at 1 uM by Western blot analysis relative to control; assay type: cell-based
[8] = target: T1, Protein cereblon/Tyrosine-protein kinase BTK (Homo sapiens, UniProt Q06187+Q96SW2, C481S); assay: PROTAC activity at CRBN/BTK in human TMD8 cells assessed as protein degradation; assay type: cell-based
[9] = system: Protein cereblon/Tyrosine-protein kinase BTK (Homo sapiens), Q06187+Q96SW2 [C481S]; assay: PROTAC activity at CRBN/BTK in human TMD8 cells assessed as maximal protein degradation relative to control; assay type: cell-based
[10] = Cmax in C57BL/6 mouse at 30 mg/kg, po by LC-MS/MS analysis; assay type: ADME, organism-based; conditions: in vivo
[11] = Tmax in C57BL/6 mouse at 30 mg/kg, po by LC-MS/MS analysis; assay type: ADME, organism-based; conditions: in vivo
[12] = Half life in C57BL/6 mouse at 30 mg/kg, po by LC-MS/MS analysis; assay type: ADME, organism-based; conditions: in vivo
[13] = AUC (0 to t) in C57BL/6 mouse at 30 mg/kg, po by LC-MS/MS analysis; assay type: ADME, organism-based; conditions: in vivo
[14] = Oral bioavailability in C57BL/6 mouse at 30 mg/kg by LC-MS/MS analysis; assay type: ADME, organism-based; conditions: in vivo
[15] = target: T1, Protein cereblon/Tyrosine-protein kinase BTK; assay: PROTAC activity at CRBN/BTK C481S mutant in human TMD8 cells assessed as degradation of BTK protein incubated for 4 hrs by HTRF assay; assay type: cell-based
[16] = Oral bioavailability in mouse; assay type: ADME, organism-based; conditions: in vivo
[17] = target: T2, Protein cereblon/Tyrosine-protein kinase BTK (Homo sapiens, UniProt Q06187+Q96SW2); assay: PROTAC activity at CRBN/BTK in human TMD8 cells assessed as induction of BTK degradation incubated for 24 hrs by immunoblotting analysis; assay type: cell-based
Target sequence in this assay (Q06187 whole entry): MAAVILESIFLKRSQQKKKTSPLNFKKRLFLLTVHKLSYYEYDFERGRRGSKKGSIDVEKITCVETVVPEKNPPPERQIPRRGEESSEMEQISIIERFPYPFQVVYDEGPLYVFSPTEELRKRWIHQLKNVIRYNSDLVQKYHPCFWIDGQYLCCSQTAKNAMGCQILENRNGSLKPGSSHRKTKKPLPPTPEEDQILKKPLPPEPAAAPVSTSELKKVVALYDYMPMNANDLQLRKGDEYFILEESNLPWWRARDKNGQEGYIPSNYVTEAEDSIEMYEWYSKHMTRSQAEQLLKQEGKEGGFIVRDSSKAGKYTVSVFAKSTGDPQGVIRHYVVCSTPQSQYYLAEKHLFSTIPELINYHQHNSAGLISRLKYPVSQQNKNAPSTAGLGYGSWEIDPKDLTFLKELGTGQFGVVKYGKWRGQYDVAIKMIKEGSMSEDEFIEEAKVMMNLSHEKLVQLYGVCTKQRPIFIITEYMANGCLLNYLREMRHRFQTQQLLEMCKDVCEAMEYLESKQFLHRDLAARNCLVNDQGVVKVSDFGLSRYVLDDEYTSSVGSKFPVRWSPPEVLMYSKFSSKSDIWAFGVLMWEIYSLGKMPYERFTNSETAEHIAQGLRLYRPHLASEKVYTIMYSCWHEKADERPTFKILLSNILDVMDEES
Target sequence in this assay (Q96SW2 whole entry): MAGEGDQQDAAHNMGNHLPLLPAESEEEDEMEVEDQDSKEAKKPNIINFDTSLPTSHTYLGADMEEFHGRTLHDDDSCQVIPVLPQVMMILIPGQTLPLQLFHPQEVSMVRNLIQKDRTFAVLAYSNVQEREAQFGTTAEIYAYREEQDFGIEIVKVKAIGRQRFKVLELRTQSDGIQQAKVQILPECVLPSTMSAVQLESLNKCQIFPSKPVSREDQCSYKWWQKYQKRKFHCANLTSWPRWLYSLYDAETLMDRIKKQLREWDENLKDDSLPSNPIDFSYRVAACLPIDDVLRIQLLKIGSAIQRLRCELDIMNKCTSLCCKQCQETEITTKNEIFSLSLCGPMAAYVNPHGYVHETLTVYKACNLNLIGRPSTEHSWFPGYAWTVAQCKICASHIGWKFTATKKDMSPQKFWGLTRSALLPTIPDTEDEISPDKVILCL

[18] = target: T2, Protein cereblon/Tyrosine-protein kinase BTK; assay: PROTAC activity at CRBN/BTK in human TMD8 cells assessed as maximal degradation of BTK protein incubated for 24 hrs by immunoblotting analysis relative to control; assay type: cell-based
Target sequence in this assay (Q06187 2-659 limits assumed): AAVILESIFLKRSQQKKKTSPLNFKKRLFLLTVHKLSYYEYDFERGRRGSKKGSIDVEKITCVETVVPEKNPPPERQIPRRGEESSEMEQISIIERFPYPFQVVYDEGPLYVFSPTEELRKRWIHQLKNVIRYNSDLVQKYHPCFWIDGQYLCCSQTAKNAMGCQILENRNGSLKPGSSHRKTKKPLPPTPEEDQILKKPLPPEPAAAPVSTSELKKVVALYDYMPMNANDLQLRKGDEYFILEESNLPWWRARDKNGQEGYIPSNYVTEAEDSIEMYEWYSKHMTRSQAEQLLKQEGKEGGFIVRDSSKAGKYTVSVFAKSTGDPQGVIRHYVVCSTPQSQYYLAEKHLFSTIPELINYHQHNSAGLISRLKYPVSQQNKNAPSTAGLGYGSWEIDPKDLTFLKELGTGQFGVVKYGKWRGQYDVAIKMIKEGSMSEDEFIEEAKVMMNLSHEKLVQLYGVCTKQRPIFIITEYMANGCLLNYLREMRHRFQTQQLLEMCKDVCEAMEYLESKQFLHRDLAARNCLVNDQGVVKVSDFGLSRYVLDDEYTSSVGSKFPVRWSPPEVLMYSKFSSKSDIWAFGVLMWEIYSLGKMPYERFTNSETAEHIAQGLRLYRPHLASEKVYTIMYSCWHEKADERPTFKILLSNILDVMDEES
Target sequence in this assay (Q96SW2 whole entry partner): as the sequence (Q96SW2 whole entry) above

[19] = Cmax in mouse at 10 mg/kg, po measured upto 24 hrs by LC-MS/MS analysis; assay type: ADME, organism-based; conditions: in vivo
[20] = target: von Hippel-Lindau disease tumor suppressor/Bromodomain-containing protein 9 (Homo sapiens, UniProt Q9H8M2+P40337); assay: PROTAC activity at VHL/BRD9 in human HeLa cells assessed as induction of protein degradation […]; assay type: cell-based
[21] = Oral bioavailability in Sprague-Dawley rat at 5 mg/kg incubated for 24 hrs by LC-MS/MS analysis; assay type: ADME, organism-based; conditions: in vivo
[22] = Oral bioavailability in ICR mouse at 5 mg/kg by LC-MS/SM analysis; assay type: ADME, organism-based; conditions: in vivo
[23] = Clearance in mouse at 10 mg/kg, po measured upto 24 hrs by LC-MS/MS analysis; assay type: ADME, organism-based; conditions: in vivo
[24] = Clearance in Sprague-Dawley rat at 0.5 mg/kg, iv; assay type: ADME, organism-based; conditions: in vivo
[25] = target: Voltage-gated inwardly rectifying potassium channel KCNH2 (Homo sapiens, UniProt Q12809); assay: Inhibition of hERG (unknown origin); assay type: toxicity
[26] = target: Cytochrome P450 3A4 (Homo sapiens, UniProt P08684); assay: Inhibition of CYP3A4 (unknown origin); assay type: ADME
[27] = target: Cytochrome P450 2C19 (Homo sapiens, UniProt P33261); assay: Inhibition of CYP2C19 (unknown origin); assay type: ADME
[28] = target: Cytochrome P450 2D6 (Homo sapiens, UniProt P10635); assay: Inhibition of CYP2D6 (unknown origin); assay type: ADME
[29] = AUC in mouse at 30 mg/kg, po; assay type: ADME, organism-based; conditions: in vivo
[30] = Half life in mouse at 30 mg/kg, po measured upto 24 hrs by LC-MS/MS analysis; assay type: ADME, organism-based; conditions: in vivo

T1 sequence (Q06187 2-659 C481S limits assumed, stated change not applied): as the sequence (Q06187 2-659 limits assumed) above, with C480S counted along it
T1 sequence (Q96SW2 whole entry, stated change not applied): as the sequence (Q96SW2 whole entry) above
Cytochrome P450 2D6, sequence (P10635 whole entry): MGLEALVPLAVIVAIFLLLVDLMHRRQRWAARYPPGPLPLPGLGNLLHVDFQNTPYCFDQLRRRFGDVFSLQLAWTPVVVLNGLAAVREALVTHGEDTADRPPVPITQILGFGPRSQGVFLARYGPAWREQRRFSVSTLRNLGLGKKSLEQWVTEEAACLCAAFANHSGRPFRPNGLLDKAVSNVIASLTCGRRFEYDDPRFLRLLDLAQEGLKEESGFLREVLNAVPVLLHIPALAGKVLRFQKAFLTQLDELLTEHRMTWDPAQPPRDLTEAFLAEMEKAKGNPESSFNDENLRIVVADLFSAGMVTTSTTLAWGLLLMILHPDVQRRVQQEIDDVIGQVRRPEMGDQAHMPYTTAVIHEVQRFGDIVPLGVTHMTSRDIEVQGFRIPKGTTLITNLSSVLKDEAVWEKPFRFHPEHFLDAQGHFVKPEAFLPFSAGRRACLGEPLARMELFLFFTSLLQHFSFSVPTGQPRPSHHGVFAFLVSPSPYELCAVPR
von Hippel-Lindau disease tumor suppressor/Bromodomain-containing protein 9, sequence (Q9H8M2 whole entry): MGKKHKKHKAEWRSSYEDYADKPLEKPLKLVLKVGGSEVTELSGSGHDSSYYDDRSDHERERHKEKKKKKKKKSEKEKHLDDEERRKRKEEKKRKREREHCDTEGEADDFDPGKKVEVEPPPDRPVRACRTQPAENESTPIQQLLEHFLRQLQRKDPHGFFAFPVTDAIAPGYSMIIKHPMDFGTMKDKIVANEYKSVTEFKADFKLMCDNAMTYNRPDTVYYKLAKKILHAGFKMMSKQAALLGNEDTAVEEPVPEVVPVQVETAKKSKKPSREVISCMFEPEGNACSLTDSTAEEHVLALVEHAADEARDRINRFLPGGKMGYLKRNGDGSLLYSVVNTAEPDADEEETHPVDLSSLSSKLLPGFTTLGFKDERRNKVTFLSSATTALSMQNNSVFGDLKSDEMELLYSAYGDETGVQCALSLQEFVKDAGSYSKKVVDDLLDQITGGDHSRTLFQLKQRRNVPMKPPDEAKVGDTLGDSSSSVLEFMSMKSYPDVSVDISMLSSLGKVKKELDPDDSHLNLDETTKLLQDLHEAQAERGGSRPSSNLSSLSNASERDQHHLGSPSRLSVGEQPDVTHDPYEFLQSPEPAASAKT
von Hippel-Lindau disease tumor suppressor/Bromodomain-containing protein 9, sequence (P40337 whole entry): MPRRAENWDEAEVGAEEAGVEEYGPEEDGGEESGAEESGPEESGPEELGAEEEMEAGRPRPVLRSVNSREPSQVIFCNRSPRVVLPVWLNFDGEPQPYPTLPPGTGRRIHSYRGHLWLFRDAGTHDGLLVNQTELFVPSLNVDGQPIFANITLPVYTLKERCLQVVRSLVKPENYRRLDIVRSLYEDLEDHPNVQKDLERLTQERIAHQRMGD

For `Cc1ncsc1-c1ccc(CNC(=O)[C@@H]2C[C@@H](O)CN2C(=O)[C@@H](NC(=O)[C@H]2C[C@@H](NC(=O)c3ccc(-c4cnc(NCc5ccco5)n5cnnc45)cc3)C2)C(C)(C)C)cc1`, the DC50 [1] was 111 nM, the DC50 [2] was 275 nM and the DC50 [3] was 275 nM.
`COc1cc(N2CCC(N3CCN(CCC#Cc4cccc5c4CN(C4CCC(=O)NC4=O)C5=O)CC3)CC2)ccc1Nc1ncc(Cl)c(Nc2ccccc2P(C)(C)=O)n1` (centres undefined) gave a Cmax [4] of 3680 ng/mL, a half-life [5] of 2.08 h and an AUC(0-t) at 24 h [6] of 19700 ng·h/mL.
Work on `C[C@@H]1C=C2C=C[C@@H](C)[C@@H](CC[C@@H]3C[C@@H](O)CC(=O)O3)[C@@H]2[C@H](OC(=O)NCCOCCOCCNc2cccc3c2C(=O)N(C2CCC(=O)NC2=O)C3=O)C1` (some centres undefined) yielded an Emax [7] of 44%.
`CN1CCN([C@@H]2CCCN(c3cnc(C(N)=O)c(Nc4ccc(C5CCN(C[C@@H]6CCN(c7ccc8c(c7)C(=O)N(C7CCC(=O)NC7=O)C8=O)C6)CC5)cc4)n3)C2)C1=O` (some centres undefined) gave a DC50 [8] of 0.5 nM and an Emax [9] of 96%.
With `Cc1ncsc1-c1ccc(CNC(=O)[C@@H]2C[C@@H](O)CN2C(=O)[C@@H](NC(=O)CCCCCCCCCCNC(=O)OC2C[C@@H](C)C=C3C=C[C@H](C)[C@H](CC[C@@H]4C[C@H](O)CC(=O)O4)[C@H]32)C(C)(C)C)cc1` (some centres undefined) the Cmax [10] was 470 ng/mL, the Tmax [11] was 8 h and the half-life [12] was 5.1 h. For the same compound, the AUC(0-t) [13] was 5000 ng·h/mL.
Compound `CNc1nc(Nc2ccc(C(=O)N3CCN(C[C@H]4CC[C@H](CSC(C)(C)[C@H](NC(=O)C5(F)CC5)C(=O)N5C[C@H](O)C[C@H]5C(=O)NCc5ccc(-c6scnc6C)cc5)CC4)CC3)cc2OC)ncc1Cl` has a Cmax [10] of 3620 ng/mL, a Tmax [11] of 2 h and a half-life [12] of 21.9 h. For the same compound, the AUC(0-t) [13] was 21300 ng·h/mL and the bioavailability [14] was 15%.
In the case of `NC(=O)c1ncc(N2CCCCC2)nc1Nc1ccc(C2CCN(C[C@@H]3CCN(c4ccc5c(c4)C(=O)N(C4CCC(=O)NC4=O)C5=O)C3)CC2)cc1` (some centres undefined), the DC50 [15] is reported as 13 nM, the bioavailability [16] is reported as 8% and the DC50 [17] is reported as 4.5 nM. The Emax [18] was 86% and the Cmax [19] was 1300 nM.
With `COc1cc(-c2cn(C)c(=O)c3cnccc23)cc(Cl)c1CN1CCC(C2CCN(C(=O)c3ccc(NC4CCC(=O)NC4=O)cc3C(F)(F)F)CC2)CC1` (centres undefined) the DC50 [20] was 11 nM, the bioavailability [21] was 48% and the bioavailability [22] was 100%. For the same compound, the CL/F [23] was 30 mL/min/kg, the clearance [24] was 74 mL/min/kg and the IC50 [25] was 7500 nM. The IC50 [26] was 5600 nM, the IC50 [27] was 1900 nM and the IC50 [28] was > 30000 nM.
For `O=C1CC[C@H](N2Cc3cc(N4CCN(CC5CCN(c6ccc([C@@H]7c8ccc(O)cc8CC[C@@H]7c7ccccc7)cc6)CC5)CC4)ccc3C2=O)C(=O)N1` [VEPDEGESTRANT], the AUC [29] was 5720 ng·h/mL and the half-life [30] was 28 h.
